Data published in US12728126B2, “Compounds for inhibiting LY6K and methods of using same” (The Henry M. Jackson Foundation for the Advancement of …, priority 2020, dated 2026).

Columns and labels:
TGFβ1/Smad2/3 signaling = assay: Western blot of TGFβ1 induced phosphorylation of Smad2/3; type: cell-based; settings: serum starved, TGFβ1 (10 ng/mL), 2 μM, 30 minutes
Method: (§1) Cells were serum starved overnight and then treated with TGF 13 (10 ng/mL) or IFN γ (100 ng/mL) in the presence of 2 μM NSC243928 or NSC11150 for 30 minutes followed by protein analysis using western blot. […] NSC243928 inhibited the TGFβ1 induced phosphorylation of Smad2/3; NSC11150 had no effect on TGFβ1/Smad2/3 signaling. NSC11150 inhibited IFNγ induced phosphorylation of Stat1; NSC243928 had no effect on IFNγ/Stat1 signaling.

PD-L1 [1] = assay: PD-L1 protein expression in control cells; type: cell-based; settings: 2 μM
PD-L1 [2] = assay: PD-L1 measured in live cells after IFN γ treatment; type: cell-based; settings: serum starved, 100 ng/ml IFN γ, 2 μM drug
Method: Cells were serum starved and treated with 100 ng/ml IFN γ with 2 μM drugs. PD-L1 was measured in live cells (using a zombie live-dead stain). The graph was plotted from three experiments. A 7.9-fold decrease in the number of cells with high PD-L1 expression was observed.

[3] = tested on: 4T1 mouse mammary tumor cells; assay: 4T1 syngeneic mammary tumor model, tumor growth in vivo; design: species or system Balb/c mice; settings: 4T1 model
Method: A syngeneic mammary tumor model is used to show the effect of Ly6K small molecule inhibitors on tumor growth in vivo. 4T1 mouse model is an orthotopic allograft model (also called the spontaneous tumor metastasis model). In the 4T1 mouse model, 4T1 mouse mammary tumor cells were injected into the second mammary gland of syngenetic Balb/c mice, and the spontaneous metastasis to the lung were analyzed with a colonogenic assay. 4T1 mice bearing 50-70 mm^3 tumors were treated with NSC243928 or NSC11150 every second day at a dosage of 5 mg/kg in saline. Each group had 10 mice. Tumor measurements were performed using a Vernier caliper. The tumor volumes were calculated using equation ½*length*(width*width).

MDA-MB-231 cells = assay: Cell-Titer-Blue assay, control vs LY6K knockdown MDA-MB-231 cells; type: cell-based
Method: (§2) For cell death assay, cells were plated in a black walled 96-well plate and treated with the indicated concentration of drugs for 24 h. Cell-Titer-Blue reagent was added, and the Cytation 5 microplate reader (BioTek, Winooski, VT, USA) was used to measure fluorescence intensity (excitation 560(10) nm, emission 590(20) nm) according to manufacturer's instructions.
To confirm the effect of NSC243928 in LY6K-expressing cells, it was observed the parental control and sh2 LY6K knockdown in MDA-MB-231 cells, a triple negative breast cancer cell line. These cells were generated as previously described. To test the effect of NSC243928 on cell growth, the cells were seeded into 96-well plates and treated with 2 μM of the compound for 24 h. A CTB assay was then performed according to manufacturer's instructions to determine the cell growth.
as §1

IFNγ/Stat1 signaling = assay: Western blot of IFNγ induced phosphorylation of Stat1; type: cell-based; settings: serum starved, IFN γ (100 ng/mL), 2 μM, 30 minutes
Method: as §1

[4] = tested on: Hs-578-T cells, BT-549 cells, and OVCAR-8 cells; assay: In vitro cell growth inhibition in other cancer cell types (FIG. 2); type: cell-based
Method: as §2
Cell culture and viability assay are as described herein. […] The inhibitory effect of a crystalline form of Compound I on cell growth in vitro is further illustrated in other cancer cells types, including Hs-578-T cells, BT-549 cells, and OVCAR-8 cells (FIG. 2).

Row | Structure (SMILES) | TGFβ1 induced phosphorylation of Smad2/3 (TGFβ1/Smad2/3 signaling) | PD-L1 protein expression (PD-L1 [1]) | inhibitory effect on cells with high expression of PD-L1 (PD-L1 [2]) | decrease in the number of cells with high PD-L1 expression (PD-L1 [2]; live cells, three experiments) | day following treatment at which inhibition on tumor growth is statistically significant ([3]; 5 mg/kg every second day, P<0.005) | inhibitory effect on tumor growth in vivo ([3]; 5 mg/kg in saline every second day) | cell death / cell growth in control MDA-MB-231 cells (MDA-MB-231 cells; 2 μM, 24 h, control cells) | cell death in Ly6K knockdown cells (MDA-MB-231 cells; 100 μM, Ly6K knockdown cells (data not shown)) | cell death in control cells (MDA-MB-231 cells; 100 μM, control cells (data not shown)) | IFNγ induced phosphorylation of Stat1 (IFNγ/Stat1 signaling) | inhibitory effect on cell growth at different concentrations (comparison) ([4]; crystalline form compared, different concentrations) | IC50 ([4]; range over the cell types of FIG. 2)
1 | Oc1ccc(Cc2ccc(Cl)cc2)c(O)c1 [Compound II, 4-(4-chlorobenzyl)benzene-1,3-diol] | had no effect | inhibition of PD-L1 expression | showed inhibitory effect | 7.9 fold | 11 days | significant inhibitory effects | did not show significant effect on cell death | induced cell death | induced cell death | inhibited |  | 
2 | CCS(=O)(=O)Nc1ccc(Nc2c3ccccc3nc3ccccc23)c(OC)c1 [crystalline form of Compound I, N-(4-(acridin-9-ylamino)-3-methoxyphenyl)ethanesulfonamide] |  |  |  |  |  |  |  |  |  |  | same or better inhibitory effect | 4.17 to 7.65 µM
